# Experimental data: patent publication EP1075525B1, “DNA POLYMERASE FROM PYROBACULUM ISLANDICUM” (Roche Diagnostics GmbH, priority 1999, dated 2000)
# Test system: DNA polymerase of P. islandicum
# Experiment: Non-radioactive DNA polymerase activity assay: influence of inhibitors and ions
# Type: biochemical, Pyrobaculum islandicum
# Settings: for DNA polymerase activity: pH 7.5, 0.5 mM MgCl2, 0 mM KCl, 0.5 U
compound,measurement,setting,value
C[C@@]1(CO)[C@H](O)CC[C@@]2(C)[C@H]1CC[C@H]1C[C@@H]3C[C@@]12CC[C@]3(O)CO [Aphidicolin],DNA polymerase activity,"50 µM (17 µg/ml) aphidicolin, 75°C",100%
same,DNA polymerase activity,"200 µM (68 µg/ml) aphidicolin, 75°C",70%
same,DNA polymerase activity,"500 µM (170 µg/ml) aphidicolin, 75°C",55%
same,DNA polymerase activity,"2000 µM (680 µg/ml) aphidicolin, 75°C",21%
[Cl-].[K+] [KCl],residual activity,"in the presence of 100 mM KCl, 75°C, pH 7.3, 0.5 mM MgCl2",7%
CCN1C(=O)C=CC1=O [N-Ethylmaleimid],DNA polymerase activity,"1 mM N-Ethylmaleimid, preincubation of enzyme at 90°C for 20 min, 75°C",40%
same,DNA polymerase activity,"2 mM N-Ethylmaleimid, preincubation of enzyme at 90°C for 20 min, 75°C",30%
same,DNA polymerase activity,"5 mM N-Ethylmaleimid, preincubation of enzyme at 90°C for 20 min, 75°C",0%
same,DNA polymerase activity (in words),after a preincubation with 5 mM NEM,total loss of activity
Nc1nc2c(ncn2[C@H]2CC[C@@H](COP(=O)(O)OP(=O)(O)OP(=O)(O)O)O2)c(=O)[nH]1 [ddGTP],DNA polymerase activity,"ddGTP/dGTP = 5, 75°C",95%
same,DNA polymerase activity,"ddGTP/dGTP = 20, 75°C",53%
same,inhibition of DNA polymerase (in words),ddGTP/dGTP ratio of 2,No inhibition
